Data reported in patent publication US20040116369A1, “Interferon regulatory factor-1/human estrogen receptor fusion protein and its use for treating carcinomas” (priority 2001, published 2004).

Assays:
NIH3T3TA/IH/MR cells [1] = test: Anchorage independent growth in soft agar; format: cell-based, murine; settings: +E2 1 μM, two weeks after treatment
Procedure: Assay for anchorage independent growth. Anchorage-independent growth capability was determined by assessing the colony-formation efficiency of cells suspended in soft agar. 1×10^3 cells were seeded in 50 μl of 0.3% overlay agar in microtiter plates coated with 50 μl 0.6% underlay agar. The induction medium was added to the top (50 μl/well). […] To determine wether IRF-1 reverses the transformed phenotype of the cells to the formation of colonies in soft agar was assayed. […] In contrast, in the absence of Doxycycline (transformed status) the cells grew well and formed soft agar clones. The ability of soft agar growth was completely abolished by the activation of IRF-1 by E2 gift (Table 3).

HepaIRF-1hER tumors = test: Subcutaneous tumor growth in syngeneic C57L/J mice; format: in vivo
Excerpt: (§1) Tumor model. The Hepa1-6 tumor model in C57L/J mice (44) was chosen because they show reliable growth in the syngeneic host. Hepa1-6 cells are a derivative of the BW7756 mouse hepatoma that arose in a C57L mouse. MHC class I and II expression is identical between C57L and C57L/J mice and Hepa1-6 HCCs are characterized by AFP expression. […] After 6 days, tumors were visible and reached a size of about 2000 mm^3 after a mean time of 18 days. This tumor size was used as endpoint in the invention, and mice were subsequently sacrificed. Tumor incidence and volume were assessed every two days using calipers. Data are presented as mean volume±SE.
(§2) Tumor protection studies. C57L/J mice were inoculated with 1×10^7 Hepa1-6 (groups 1 and 2) or HepaIRF-1hER (groups 3 and 4) cells into the right flank. Group 5 was not inoculated with any tumor. The different groups were treated as follows:
(§3) The efficacy of IRF-1 activation as a therapeutic vaccine against tumors was examined. Mice were injected subcutaneosly with HepaIRF-1hER cells in the right flank and wt Hepa1-6 cells into the left flank. The animals were either treated with 1.5 mg E2 every two days or were left untreated. Activation of IRF-1-hER abolished tumor growth of HepaIRF-1hER cells on the right flank of the mice.

Hepa1-6 (wt) tumors = test: Subcutaneous tumor growth in syngeneic C57L/J mice; format: in vivo; settings: 1.5 mg E2 every two days i.p.
Excerpt: as §1, §2, §3

NIH3T3TA/IH/MR cells [2] = test: IFN secretion by antiviral assay; format: cell-based, murine; settings: +E2 1 μM, five days, normalized to 10^6 cells
Procedure: (§4) IFN-Test. The interferon concentrations in the cell culture supernatants were determined by an antiviral assay imploying mouse L929 cells (43). To confirm the specificity of the antiviral activity a neutralizing monoclonal antibody directed against mouse IFN-β was added to the supernatant before addition to the test cells.
IFN secretion as determined by an antiviral assay was taken as a measure of IRF-1 activity.

[3] = test system: Hepa1-6 cell clones expressing IRF-1hER (c4, c9, c22); test: Cell growth (WST metabolic activity); format: cell-based, murine; settings: Mus musculus, Hepa1-6, 168 h, 7 days after IRF-1 activation, 1 μM β-estradiol, read-out: extent of proliferation inhibition
Procedure: (§5) Measurement of cell growth. For determination of cell growth 2×10^3 cells/well were seeded into microtiter plates and serial dilutions (1:1) were performed allowing several independent measurement points. Cells were treated with the indicated concentration of β-estradiol. Cell growth was determined using the WST kit (Roche Diagnostics, Mannheim, Germany) following the manufacturer's instruction. Mean values of triplicates resulting in less than 10% deviation were plotted.

HepaIRF-1hER cell clones = test: IFN secretion measured by antiviral assay in culture supernatant; format: cell-based, murine; settings: +E2 1 μM, five days, normalized to 10^6 cells
Procedure: For activation of IRF-1 in the IRF-1-hER fusion protein, E2 (SERVA, Frankfurt, Germany) was added to the cell culture medium to reach a final concentration of 1 μM.
as §4

NIH3T3TA/IH/MR cells [4] = test: Proliferation (metabolic activity, WST); format: cell-based, murine; settings: +E2 1 μM, seven days after treatment
Procedure: as §5
The effects of IRF-1 in oncogenically transformed NIH3T3 cells were examined. NIH3T3 cells conditionally expressing the oncogenes c-myc and c-Ha-ras were used. Both oncogenes were bicistrinically expressed under the control of the tetracycline regulatable promoter (Kröger, Dissertation, Universität Braunschweig, 1999). The cells were stably transfected with the IRF-1-hER fusion protein encoding construct. This cell line allows the investigation of IRF-1 effects in the non-transformed NIH3T3 cells (presence of Doxycycline) and in the transformed state of the cells (absense of Doxycycline). The antitumoral activity of IRF-1 in vitro was investigated: Influence on proliferation, soft agar growth and IFN induction with and without IRF-1hER activation by E2 treatment were measured. This was done in the non-transformed as well as in the transformed state. E2 and Doxycyline were added for five days.

NIH3T3TA/MR/IH cells = test: Tumor growth of transformed cells in nude mice; format: in vivo, NMRI nude mice; settings: 1.5 mg E2 every two days i.p.; 10^6 cells s.c.
Procedure: Male 6-8-week old NMRI nude mice (Harlan Winkelmann, Borchen, Germany) were maintained in the SPF unit of the animal facility of German Research Center for Biotechnology. Mice were divided into two experimental groups, five mice for each group. 1×10^6 cells in 0.2 ml PBS NIH3T3TA/MR/IH cells were injected subcutaneously into the flanks of the mice. The groups were treated as follows: group 1: no treatment (n=5); group 2: 1.5 mg of E2 every two days i.p. (n=4). Tumor volumes were measured and recorded three times a week using calipers. Data are presented as mean value of tumor volume.

C[C@]12CC[C@@H]3c4ccc(O)cc4CC[C@H]3[C@@H]1CC[C@@H]2O [E2, β-estradiol]
Soft agar growth (number of clones) (NIH3T3TA/IH/MR cells [1]; +DOX 2 μg/ml (non-transformed)): 0
Soft agar growth (number of clones) (NIH3T3TA/IH/MR cells [1]; −Dox (transformed)): 0
Tumor volume (mean ± SD) (HepaIRF-1hER tumors; HepaIH 5 × 10^6 cells s.c., 1.5 mg E2 every two days i.p.): 22,4 ± 179 mm^3
mice protected against challenge (HepaIRF-1hER tumors; HepaIRF-1hER tumor, E2 treatment): 75%
tumor size after 40 days (HepaIRF-1hER tumors; the two E2 treated animals that developed tumors): 450 mm^3
Tumor volume (mean ± SD) (Hepa1-6 (wt) tumors; Hepa1-6 (wt) 5 × 10^6 cells s.c.): 1630 ± 596 mm^3
Tumor volume (mean ± SD) (Hepa1-6 (wt) tumors; Hepa1-6 tumor on left flank of mice also carrying HepaIH on right flank): 179 ± 288 mm^3
IFN secretion (NIH3T3TA/IH/MR cells [2]; +DOX 2 μg/ml): 750 IU/ml
IFN secretion (NIH3T3TA/IH/MR cells [2]; −Dox): 750 IU/ml
inhibition at 1 µM [3]: 40 to 80%
IFN secretion (HepaIRF-1hER cell clones; clone c4): 125 IU/ml
IFN secretion (HepaIRF-1hER cell clones; clone c9): 125 IU/ml
IFN secretion (HepaIRF-1hER cell clones; clone c22): 180 IU/ml
Proliferation (NIH3T3TA/IH/MR cells [4]; +DOX 2 μg/ml (non-transformed)): 60%
Proliferation (NIH3T3TA/IH/MR cells [4]; −Dox (transformed)): 65%
mice that developed no tumors (NIH3T3TA/MR/IH cells): 40%
